B1: ovalbumin (protein, UniProt P01012 2-386, looked up)
Ovalbumin: GSIGAASMEFCFDVFKELKVHHANENIFYCPIAIMSALAMVYLGAKDSTRTQINKVVRFDKLPGFGDSIEAQCGTSVNVHSSLRDILNQITKPNDVYSFSLASRLYAEERYPILPEYLQCVKELYRGGLEPINFQTAADQARELINSWVESQTNGIIRNVLQPSSVDSQTAMVLVNAIVFKGLWEKAFKDEDTQAMPFRVTEQESKPVQMMYQIGLFRVASMASEKMKILELPFASGTMSMLVLLPDEVSGLEQLESIINFEKLTEWTSSNVMEERKIKVYLPRMKMEEKYNLTSVLMAMGITDVFSSSANLSGISSAESLKISQAVHAAHAEINEAGREVVGSAEAGVDAASVSEEFRADHPFLFCIKHIATNAVLFFGRCVSP
notes: Ovalbumin, model vaccine / protein antigen, unprotected or as solution

Columns and labels:
BALB/C mice [1] = tested on: BALB/C mice
Source text: Experimental Methods: Ten-twelve week old female BALB/C mice are used. Mice are fed ad libitum. Each experimental group is housed in a separate cage.
Three groups of 4 mice are each fed ad libitum as follows: 1) Inventive Warfarin composition, mixed in baits at 4% Warfarin activity, 2) Unencapsulated Warfarin, mixed in baits feed at 4% activity, 3) Bait containing a composition as in Example 3, containing no Warfarin or other bioactive. The feed intake and kill effect on the mice are monitored.

Rodents = settings: cited from earlier work
BALB/C mice [2] = assay: Oral administration of OVA composition to mice, immune response (ELISA IgG/IgA, ASC); assay type: in vivo; settings: OVA solution subcutaneously (SC), 0 and 3 weeks, read at week 4, expected
Protocol: Ovalbumin is orally administered to mice to test the efficacy of the inventive compositions in inducing an immune response.
Ovalbumin composition: Ovalbumin (1 mg/g of ovalbumin, Sigma, St. Louis, Mo.,) is incorporated into the inventive composition as described in Example 5. Three groups of 4 mice each are inoculated as follows: 1) ovalbumin (OVA) in the composition, administered orally, 2) OVA solution, administered subcutaneously (SC), 3) antigen free composition administered orally. Mice are inoculated at 0 and 3 weeks. Each dose administers a total 100 mg of dry composition mixed with corn oil at a ratio of 1:2 w/w of dry composition/oil, coated onto feed pellets. At week 4 each mouse is euthanized and serum and spleen cells are harvested.
Immunological assays: Serum is assayed for IgG and IgA by ELISA. ELISA is performed using OVA absorbed to polystyrene plates. Samples are placed in wells in triplicate at a 1:25 dilution for serum. […] Optical density of each well is determined by placing the plate in a microtiter plate spectrophotometer and reading the plate at 490 nm. […]
The OVA specific IgG and IgA antibodies are quantified by determining the increase in optical density over time. […] No OVA specific IgG or IgA antibodies are expected to be detected in mice fed antigen free composition.

[3] = Degradation of unprotected protein antigen (OVA) activity in simulated gastric juice; assay type: physicochemical; settings: simulated gastric fluid, 0.08% pepsin, pH-2, 37° C.
Protocol: Western Blot: the compositions were lysed with RIPA buffer as described above, and a calculated amount equivalent to 12 μg of protein per sample was loaded on a 10% SDS-polyacrylamide gradient gel (SDS-PAGE, Bio-Rad, Hercules, Calif.). Proteins were transferred onto a PVDF membrane (Bio-Rad) and blocked for 1 h with 5% non-fat milk in PBS containing 0.5% Tween-20 (PBS-T). Blots were incubated with an appropriate primary antibody at 1:5000 dilutions for 1 h at room temperature. After washing with PBS-T (3×10 mL, 5 min. each), the membranes were incubated with an appropriate HRP-conjugated secondary antibody (EMD Millipore Corporation, Billerica, Mass., USA) at 1:5000 dilution for 1 h. After washing with PBS-T (3×10 mL, 5 min. each), chemiluminescent films were developed with an ECL substrate (Amsheram Biosciences).
To evaluate the loss of activity of a protein antigen following a typical gastric exposure, non-encapsulated OVA (10 mg) was incubated in 10 ml simulated gastric fluid containing 0.08% pepsin at pH-2 for 2 h at 37° C. on a shaker. Medium was withdrawn at 15 min, 30 min, 60 min and 120 min incubation times, and the amount of residual OVA was analyzed using Western Blot analysis as described above.

[4] = rodents ingesting baits containing Warfarin

Molecule | kill effect on the mice (BALB/C mice [1]; after 8 h from feeding, expected) | feed intake, less than groups 1 and 3 (BALB/C mice [1]; baits at 4% Warfarin activity, ad libitum) | time to recovery (Rodents; rodents after a sublethal amount of Warfarin) | time to become unconscious (Rodents; [4]) | time to obvious symptoms of poisoning (Rodents; [4]) | OVA specific serum IgA, IgG and ASC secreting cells (BALB/C mice [2]) | Remaining activity (%) ([3]; 15 min, relative to pre-exposure activity) | Remaining activity (%) ([3]; 30 min) | Remaining activity (%) ([3]; 60 min) | Remaining activity (%) ([3]; 120 min)
CC(=O)CC(c1ccccc1)c1c(O)c2ccccc2oc1=O (stereo not shown) [Warfarin] | all group 2 mice remain alive | over 25% | ≤ 8 h | 1 to 2 h | 15 to 30 min |  |  |  |  | 
B1 |  |  |  |  |  | equally increased | 61% | 55% | 38% | 2%
